Legend:
[1] = target: T1, TetR, regulator sequence SEQ ID NO: 13 (Escherichia coli, UniProt P04483); test: cell-based; type: cell-based; conditions: anhydrotetracycline; for Fold Induction: 15 h; for EC50: lumped half-maximal parameter from Hill fit
T1 construct: expressed in transfected cells; host or cells: E. coli DH5alpha transformed with pJKR-H (high copy) or pJKR-L (low copy) plasmid
Excerpt: Plasmids were constructed using Gibson isothermal assembly methods (see Gibson, D. G., Young, L., Chuang, R. Y., Venter, J. C., Hutchison, C. A., 3rd and Smith, H. O. (2009) Enzymatic assembly of DNA molecules up to several hundred kilobases. Nat Methods, 6, 343-345 incorporated herein by reference in its entirety) and transformed into DH5α electrocompetent cells (New England Biolabs, Ipswich Mass.). All standard induction plasmids contained the rrnB strong terminator (see Orosz, A., Boros, I. and Venetianer, P. (1991) Analysis of the complex transcription termination region of the Escherichia coli rrnB gene. European journal of biochemistry/FEBS, 201, 653-659 incorporated herein by reference in its entirety) followed by the inducible promoter and the strong g10 RBS (see Olins, P. O., Devine, C. S., Rangwala, S. H. and Kavka, K. S. (1988) The T7 phage gene 10 leader RNA, a ribosome-binding site that dramatically enhances the expression of foreign genes in Escherichia coli. Gene, 73, 227-235 incorporated herein by reference in its entirety) ‘[…],’ (SEQ ID NO:1) driving the expression of sfGFP (see Pedelacq, J. D., Cabantous, S., Tran, T., Terwilliger, T. C. and Waldo, G. S. (2006) Engineering and characterization of a superfolder green fluorescent protein. […] GFP was followed by a transcriptional terminator prefixing the proB promoter (see Davis, J. H., Rubin, A. J. and Sauer, R. T. (2011) Design, construction and characterization of a set of insulated bacterial promoters. Nucleic acids research, 39, 1131-1141 incorporated herein by reference in its entirety) and strong RBS ‘[…],’ (SEQ ID NO:2) which facilitated expression of the transcriptional regulator. Each inducible system was implemented on high and low copy plasmids. High copy pJKR-H plasmids were constructed with the pUC origin and beta lactamase antibiotic resistance marker derived from pUC19 (New England Biolabs, Ipswich Mass.). Low copy pJKR-L plasmids were constructed in the same way, except that the pUC origin was replaced by the SC101 origin (including repA) from pSC101 obtained from American Type Culture Collection (ATCC #37032). […] The plasmids MphR-p15a-SPEC-mCherry and AcuR-colA-KAN-CFP were designed for compatible maintenance with pJKR-H-CdaR. In both these plasmids the antibiotic resistance gene and origin of replication were replaced with p15a-aadA and colA-kanR. Each enzyme was cloned downstream of the constitutive promoter P2 (see Mutalik, V. K., Guimaraes, J. C., Cambray, G., Lam, C., Christoffersen, M. J., Mai, Q. A., Tran, A. B., Paull, M., Keasling, J. D., Arkin, A. P. et al. (2013) Precise and reliable gene expression via standard transcription and translation initiation elements. Nat Methods, 10, 354-360 hereby incorporated by reference in its entirety) and g10 RBS to create pJKR-MIOX variants. These expression plasmids used the colA origin of replication and kanamycin resistance gene for maintenance. Sequences and plasmids are available on Addgene (plasmid numbers 62557-62570).
DH5α cells transformed with pJKR plasmids and maintained with carbenicillin were used in the induction assays. For each induction evaluation experiment, the cells were grown overnight to saturation before being diluted 1:100 into fresh LB media and incubated at 200 RPM and 37° C. After four hours, 150 μl of the log-phase cells were transferred to 96-well plates and stock inducer was added to achieve the desired range of induction concentrations. Three separate wells were inoculated and independently supplemented with the appropriate amount of inducing chemical for each level of induction. Measurements were made on the same Biotek (Winooksi, Vt.) HT plate reader using the same settings: excitation 485/20, emission 528/20, 37° C. and fast shaking. Fluorescence and absorbance were measured every 10 minutes for 15 hours. Fluorescence was measured in arbitrary units (AFU) while optical density was determined by absorbance (OD). […]

DH5α cells = test: Toxicity of inducer chemicals and solvents (growth); conditions: for effect on growth: arabinose high concentrations, glucarate highest concentration, ethanol low levels; for concentration at which toxicity was observed: E. coli without resistance gene
Procedure: Growth rate was measured for each combination of chemical and concentration during the exponential phase of growth. Rates were normalized to the growth rate of cells without any added chemical and plotted as bar height. Concentration of each inducer is indicated in the table, corresponding to the bar chart by order and color. […] Inducer concentrations mirror the concentrations used in the induction experiments.
150 μl of cells were transferred into 96-well plates and the assayed chemical was immediately added in triplicate before further incubation at 600 RPM and 37° C.
Toxicity of the inducer chemicals was measured to help guide the choice of inducer concentration for biosensor applications. In applications where maximum protein production is the goal, toxicity will be less of a consideration. In contrast, sub-toxic induction is important for complex circuits that require the cell to maintain a healthy cell state.

T1 sequence (P04483 whole entry): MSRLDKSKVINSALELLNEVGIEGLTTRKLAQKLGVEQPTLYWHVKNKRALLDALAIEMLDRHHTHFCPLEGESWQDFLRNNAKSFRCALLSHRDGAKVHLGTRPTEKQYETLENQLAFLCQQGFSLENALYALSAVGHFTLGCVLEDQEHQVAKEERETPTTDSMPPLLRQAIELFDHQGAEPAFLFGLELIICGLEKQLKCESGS

Q: What does the source list for `Cc1c2c(c(O)c3c(O)cccc13)C(=O)[C@]1(O)C(=O)C(C(N)=O)=C(O)[C@@H](N(C)C)[C@@H]1C2` [Anhydrotetracycline, anhydrotetracycline]?
A: Hill Coefficient ([1]; high copy): 4.2 ± 0.1; Max Expression Velocity ([1]; high copy): 1760 ± 10 s⁻¹; Fold Induction ([1]; high copy): 63 ± 3 fold; EC50 ([1]; high copy): 81 ± 1 nM; Hill Coefficient ([1]; low copy): 3.1 ± 0.3; Max Expression Velocity ([1]; low copy): 116 ± 2 s⁻¹; Fold Induction ([1]; low copy): >50 fold; EC50 ([1]; low copy): 54 ± 2 nM

Q: Which “concentration at which growth defect was observed” value (DH5α cells; E. coli, defect likely due to solvent ethanol) does the source give for `Cc1c2c(c(O)c3c(O)cccc13)C(=O)[C@]1(O)C(=O)C(C(N)=O)=C(O)[C@@H](N(C)C)[C@@H]1C2` [anhydrotetracycline] here?
A: The value was 0.43 µM.

Q: How did the effect on growth (DH5α cells) turn out when `O=C[C@@H](O)[C@H](O)[C@H](O)CO` [arabinose] was run?
A: The effect on growth was “higher growth rates”.

Q: What does the source list for `CC[C@H]1OC(=O)[C@H](C)[C@@H](O[C@H]2C[C@@](C)(OC)[C@@H](O)[C@H](C)O2)[C@H](C)[C@@H](O[C@@H]2O[C@H](C)C[C@H](N(C)C)[C@H]2O)[C@](C)(O)C[C@@H](C)C(=O)[C@H](C)[C@@H](O)[C@]1(C)O` [erythromycin]?
A: concentration at which toxicity was observed (DH5α cells): ≥ 50 µM; concentration up to which only slight toxicity was observed (DH5α cells; with expression of the erythromycin resistance gene (eryR)): up to 1.4 mM

Q: `CCO` [ethanol] was tested. Which effect on growth (DH5α cells) did it give?
A: The effect on growth was “more modest growth benefits”.

Q: `O=C(O)[C@@H](O)[C@@H](O)[C@H](O)[C@@H](O)C(=O)O` [glucarate] was tested. Which effect on growth (DH5α cells) did it give?
A: Its effect on growth is “more modest growth benefits”.

Q: How did the “concentration at which toxicity was observed” value (DH5α cells) turn out when `O=C1C[C@@H](c2ccc(O)cc2)Oc2cc(O)cc(O)c21` [naringenin] was run?
A: Its value is ≥ 330 µM.
